Measured values as given in publication PMC10390517, “Design, synthesis, in vitro, and in silico evaluations of benzo[d]imidazole-amide-1,2,3-triazole-N-arylacetamide hybrids as new antidiabetic agents targeting α-glucosidase” (Scientific Reports, 2023).
Read-outs that look alike come from different tables or passages of the source.

Experiments:
α-glucosidase [1] = molecular target: T1, α-glucosidase (Saccharomyces cerevisiae, UniProt P53341); test: biochemical; assay type: biochemical; settings: for activity against α-glucosidase (in words): SAR discussion / conclusion, compared with acarbose; for IC50: yeast form of α-glucosidase, mean ± S.E. of at least three different experiments
Method: The newly synthesized benzo[d]imidazole-amide-1,2,3-triazole-N-arylacetamide hybrids 8a–n were evaluated against yeast form of α-glucosidase.

α-glucosidase [2] = molecular target: T1, α-glucosidase; test: Kinetic study of α-glucosidase inhibition (Lineweaver–Burk plots); assay type: biochemical, yeast
Method: Therefore, values of Vmax remained constant while the values of Km increased. […] Besides, the Ki value was 40.0 µM that was obtained by the secondary plot of Lineweaver–Burk plots (Fig. 2b).
Figure 2 Inhibitory kinetics of compound 8c on α-glucosidase. (a) Lineweaver–Burk plots for inhibition of compound 8c. (b) The secondary plot of Lineweaver–Burk plots for determination Ki value of compound 8c.
In vitro anti-α-glucosidase inhibition and kinetic study of the new compounds 8a–n were performed exactly according to our pervious reported works.

[3] = In vitro cytotoxicity by MTT method, HDF; settings: human, HDF normal human cells
[4] = test system: normal human cell line (HDF); test: In vitro cytotoxicity by MTT method, HDF; settings: normal cell line HDF
[5] = In vitro cytotoxicity by MTT method, MCF-7; settings: human, MCF-7 breast cancer cells
[6] = test system: breast cancer cell line (MCF-7); test: In vitro cytotoxicity by MTT method, MCF-7; settings: cancer cell line MCF-7
[7] = read-out: IC50 (α-glucosidase inhibitory activity)
[8] = IC50 (α-glucosidase inhibitory activity)

T1 sequence (P53341 whole entry): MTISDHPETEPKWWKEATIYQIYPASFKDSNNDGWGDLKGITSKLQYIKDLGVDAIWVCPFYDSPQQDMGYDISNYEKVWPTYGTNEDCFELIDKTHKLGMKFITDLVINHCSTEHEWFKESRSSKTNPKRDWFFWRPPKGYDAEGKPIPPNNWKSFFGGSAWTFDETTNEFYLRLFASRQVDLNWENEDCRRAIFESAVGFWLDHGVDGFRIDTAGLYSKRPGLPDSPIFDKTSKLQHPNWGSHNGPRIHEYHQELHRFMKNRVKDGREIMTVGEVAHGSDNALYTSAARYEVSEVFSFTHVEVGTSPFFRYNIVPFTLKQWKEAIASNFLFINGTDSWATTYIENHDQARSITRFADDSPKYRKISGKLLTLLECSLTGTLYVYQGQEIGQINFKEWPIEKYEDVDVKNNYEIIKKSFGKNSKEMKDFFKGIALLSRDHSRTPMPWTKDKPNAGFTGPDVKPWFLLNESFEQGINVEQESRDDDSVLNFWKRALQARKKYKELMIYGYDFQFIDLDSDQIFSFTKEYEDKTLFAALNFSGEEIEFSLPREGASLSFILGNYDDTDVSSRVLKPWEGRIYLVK

Row | IC50 (α-glucosidase [1]; [7]) | Structure (SMILES) | IC50 (α-glucosidase [1]; [8]) | melting point | further results
1 |  | Cc1ccccc1NC(=O)Cn1cc(CNC(=O)c2nc3ccccc3[nH]2)nn1 [8b, N-((1-(2-oxo-2-(o-tolylamino)ethyl)-1H-1,2,3-triazol-4-yl)methyl)-1H-benzo[d]imidazole-2-carboxamide] | > 750 µM |  | activity against α-glucosidase (in words) (α-glucosidase [1]): have not activity
2 |  | Cc1cccc(NC(=O)Cn2cc(CNC(=O)c3nc4ccccc4[nH]3)nn2)c1 [8c, N-((1-(2-oxo-2-(m-tolylamino)ethyl)-1H-1,2,3-triazol-4-yl)methyl)-1H-benzo[d]imidazole-2-carboxamide] | 49 ± 0.4 µM | 206 to 208 °C | inhibition mechanism against α-glucosidase (α-glucosidase [2]; Lineweaver–Burk plot, Vmax constant, Km increased): competitive inhibitor; Ki (α-glucosidase [2]; secondary plot of Lineweaver–Burk plots): 40 µM; IC50 [3]: > 200 µM; cytotoxic activity (in words) [4]: did not show cytotoxic activity; IC50 [5]: > 200 µM; cytotoxic activity (in words) [6]: did not show cytotoxic activity; fold more potent than positive control (acarbose) (α-glucosidase [1]; ratio of IC50 values vs acarbose): 15.3 fold
3 |  | Cc1ccc(NC(=O)Cn2cc(CNC(=O)c3nc4ccccc4[nH]3)nn2)cc1 [8d, N-((1-(2-oxo-2-(p-tolylamino)ethyl)-1H-1,2,3-triazol-4-yl)methyl)-1H-benzo[d]imidazole-2-carboxamide] | > 750 µM | 209 to 211 °C | activity against α-glucosidase (in words) (α-glucosidase [1]): have not activity
4 | 422.6 ± 1.1 µM | Cc1ccc(NC(=O)Cn2cc(CNC(=O)c3nc4ccccc4[nH]3)nn2)c(C)c1 [8f, N-((1-(2-((2,4-dimethylphenyl)amino)-2-oxoethyl)-1H-1,2,3-triazol-4-yl)methyl)-1H-benzo[d]imidazole-2-carboxamide] |  | 226 to 228 °C | 
5 | 125.6 ± 0.3 µM | Cc1cccc(C)c1NC(=O)Cn1cc(CNC(=O)c2nc3ccccc3[nH]2)nn1 [8g, N-((1-(2-((2,6-dimethylphenyl)amino)-2-oxoethyl)-1H-1,2,3-triazol-4-yl)methyl)-1H-benzo[d]imidazole-2-carboxamide] |  | 222 to 224 °C | IC50 [3]: > 200 µM; cytotoxic activity (in words) [4]: did not show cytotoxic activity; IC50 [5]: > 200 µM; cytotoxic activity (in words) [6]: did not show cytotoxic activity
6 | 251.9 ± 1.6 µM | CCc1ccc(NC(=O)Cn2cc(CNC(=O)c3nc4ccccc4[nH]3)nn2)cc1 [8h, N-((1-(2-((4-ethylphenyl)amino)-2-oxoethyl)-1H-1,2,3-triazol-4-yl)methyl)-1H-benzo[d]imidazole-2-carboxamide] |  | 213 to 215 °C | 
7 |  | COc1ccc(NC(=O)Cn2cc(CNC(=O)c3nc4ccccc4[nH]3)nn2)cc1 [8i, N-((1-(2-((4-methoxyphenyl)amino)-2-oxoethyl)-1H-1,2,3-triazol-4-yl)methyl)-1H-benzo[d]imidazole-2-carboxamide] | > 750 µM | 235 to 237 °C | 
8 |  | O=C(Cn1cc(CNC(=O)c2nc3ccccc3[nH]2)nn1)Nc1ccc(F)cc1 [8j, N-((1-(2-((4-fluorophenyl)amino)-2-oxoethyl)-1H-1,2,3-triazol-4-yl)methyl)-1H-benzo[d]imidazole-2-carboxamide] | > 750 µM | 245 to 247 °C | 
9 |  | O=C(Cn1cc(CNC(=O)c2nc3ccccc3[nH]2)nn1)Nc1ccc(Cl)cc1 [8k, N-((1-(2-((4-chlorophenyl)amino)-2-oxoethyl)-1H-1,2,3-triazol-4-yl)methyl)-1H-benzo[d]imidazole-2-carboxamide] | 134.2 ± 0.9 µM | 236 to 238 °C | 
10 | 668.5 ± 1.4 µM | O=C(Cn1cc(CNC(=O)c2nc3ccccc3[nH]2)nn1)Nc1ccc(Cl)cc1Cl [8l, N-((1-(2-((2,4-dichlorophenyl)amino)-2-oxoethyl)-1H-1,2,3-triazol-4-yl)methyl)-1H-benzo[d]imidazole-2-carboxamide] |  | 247 to 249 °C | 
11 |  | O=C(Cn1cc(CNC(=O)c2nc3ccccc3[nH]2)nn1)Nc1ccc(Br)cc1 [8m, N-((1-(2-((4-bromophenyl)amino)-2-oxoethyl)-1H-1,2,3-triazol-4-yl)methyl)-1H-benzo[d]imidazole-2-carboxamide] | 183.6 ± 0.8 µM | 227 to 229 °C | 
12 | > 750 µM | O=C(Cn1cc(CNC(=O)c2nc3ccccc3[nH]2)nn1)Nc1ccc([N+](=O)[O-])cc1 [8n, N-((1-(2-((4-nitrophenyl)amino)-2-oxoethyl)-1H-1,2,3-triazol-4-yl)methyl)-1H-benzo[d]imidazole-2-carboxamide] |  | 259 to 261 °C | 

Row | Structure (SMILES) | IC50 (α-glucosidase [1]; [7]) | IC50 (α-glucosidase [1]; [8]) | melting point | further results
13 | O=C(Cn1cc(CNC(=O)c2nc3ccccc3[nH]2)nn1)Nc1ccccc1 [8a, N-((1-(2-oxo-2-(phenylamino)ethyl)-1H-1,2,3-triazol-4-yl)methyl)-1H-benzo[d]imidazole-2-carboxamide] | > 750 µM |  |  | activity against α-glucosidase (in words) (α-glucosidase [1]): have not activity
14 | Cc1cccc(NC(=O)Cn2cc(CNC(=O)c3nc4ccccc4[nH]3)nn2)c1C [8e, N-((1-(2-((2,3-dimethylphenyl)amino)-2-oxoethyl)-1H-1,2,3-triazol-4-yl)methyl)-1H-benzo[d]imidazole-2-carboxamide] | 119.2 ± 0.8 µM |  | 216 to 218 °C | IC50 [3]: > 200 µM; cytotoxic activity (in words) [4]: did not show cytotoxic activity; IC50 [5]: > 200 µM; cytotoxic activity (in words) [6]: did not show cytotoxic activity; inhibitory activity diminished (fold) relative to 8c (α-glucosidase [1]; addition of a 2-methyl group to 3-methyl derivative 8c): around 2.5 fold
